Laboratory results as given in patent publication US20260176260A1, “DUAL RAF AND TUBULIN INHIBITORS AND METHODS OF USE THEREOF” (Deciphera Pharmaceuticals, LLC, priority 2023, published 2026).
Like-named read-outs stand apart in the source and are kept apart here.

Assays:
HCT-116 cells = assay: HCT-116 cell proliferation assay (resazurin); type: cell-based; details: read-out: HCT-116
In short: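 HCT-116 cells, 375 per well in McCoy's 5A with 10% FBS, exposed to serially diluted compound in triplicate for 67-72 h at 37 °C. Resazurin added for 4-5 h more; fluorescence (ex 540/em 600 nm) fitted to IC50.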

HPAF-II cells = assay: HPAF-II cell proliferation assay (resazurin); type: cell-based; details: read-out: HPAF-II
In short: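 Serial compound dilutions in triplicate with 750 cells/well in complete MEM with 10% FBS, 115 to 120 h at 37° C, 5% CO2. Resazurin then added for 18 to 24 h; fluorescence at ex 540/em 600 nm used to derive IC50.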

[1] = Homo sapiens, Table 2, inhibition of cell proliferation

CNC(=O)c1cc(-c2cc(-c3cc(NC(=O)c4cc(C(F)(F)F)cnn4)ccc3C)cc(C)n2)ccn1 [Example 2, N,6-dimethyl-4-(2-methyl-5-(5-(trifluoromethyl)pyridazine-3-carboxamido)phenyl)-[2,4′-bipyridine]-2′-carboxamide]
IC50 (HCT-116 cells; [1]): 500 to 1000 nM
IC50 (HCT-116 cells; Table 3): 500 to 1000 nM
IC50 (HPAF-II cells; [1]): 500 to 1000 nM
IC50 (HPAF-II cells; Table 3): 500 to 1000 nM

CNC(=O)c1cc(-c2cc(-c3cc(NC(=O)c4cc(C(F)(F)F)cnn4)ccc3C)ccn2)ccn1 [Example 9]
IC50 (HCT-116 cells; [1]): 100 to 500 nM
IC50 (HCT-116 cells; Table 3): 100 to 500 nM
IC50 (HPAF-II cells; [1]): 100 to 500 nM
IC50 (HPAF-II cells; Table 3): 100 to 500 nM

CNC(=O)c1cc(-c2cc(-c3cc(NC(=O)c4cc(C(F)(F)F)cnn4)ccc3C)cc(NCCO)n2)ccn1 [Example 18]
IC50 (HCT-116 cells; [1]): < 100 nM
IC50 (HCT-116 cells; Table 3): < 100 nM
IC50 (HPAF-II cells; [1]): 100 to 500 nM
IC50 (HPAF-II cells; Table 3): 100 to 500 nM

CNC(=O)c1cc(-c2cc(-c3cc(NC(=O)c4cc(C5CC5)cnn4)ccc3C)ccn2)ccn1 [Example 26]
IC50 (HCT-116 cells; [1]): 100 to 500 nM
IC50 (HCT-116 cells; Table 3): 100 to 500 nM
IC50 (HPAF-II cells; [1]): 100 to 500 nM
IC50 (HPAF-II cells; Table 3): 100 to 500 nM

CNC(=O)c1cc(-c2cc(-c3cc(NC(=O)c4cc(C5CC5)cnn4)ccc3C)cc(NCCO)n2)ccn1 [Example 27]
IC50 (HCT-116 cells; [1]): < 100 nM
IC50 (HCT-116 cells; Table 3): < 100 nM
IC50 (HPAF-II cells; [1]): 100 to 500 nM
IC50 (HPAF-II cells; Table 3): 100 to 500 nM
